# Laboratory results as given in patent US6727066B2, “Genes expressed in treated human C3A liver cell cultures” (Incyte Corporation, priority 2000, dated 2004).
# Test system: human C3A liver cell cultures
# Experiment: Microarray differential expression of cDNAs in treated human C3A liver cell cultures
# Assay type: cell-based
# Conditions: change vs untreated C3A cells
# Source text: Incyte clones represent template sequences derived from the LIFESEQ GOLD assembled human sequence database (Incyte Genomics). In cases where more than one clone was available for a particular template, the 5′-most clone in the template was used on the microarray. The GENEALBUM GEM series 1-6 microarrays (Incyte Genomics) contain 52,616 array elements which represent 17,472 annotated clusters and 35,144 unannotated clusters. The HUMAN GENOME GEM series 1-3 microarrays (Incyte Genomics) contain 28,626 array elements which represent 10,068 annotated clusters and 18,558 unannotated clusters. For the UNIGEM series microarrays (Incyte Genomics), Incyte clones were mapped to non-redundant Unigene clusters (Unigene database (build 46), NCBI; Shuler (1997) J Mol Med 75:694-698), and the 5′ clone with the strongest BLAST alignment (at least 90% identity and 100 bp overlap) was chosen, verified, and used in the construction of the microarray. The UNIGEM V microarray (Incyte Genomics) contains 7075 array elements which represent 4610 annotated genes and 2,184 unannotated clusters.
# To construct microarrays, cDNAs were amplified from bacterial cells using primers complementary to vector sequences flanking the cDNA insert. […] Amplified cDNAs were then purified using […]-400 columns (APB). Purified cDNAs were immobilized on polymer-coated glass slides. Glass microscope slides (Corning, Corning N.Y.) were cleaned by ultrasound in 0.1% SDS and acetone, with extensive distilled water washes between and after treatments. Glass slides were etched in 4% hydrofluoric acid (VWR Scientific Products, West Chester Pa.), washed thoroughly in distilled water, and coated with 0.05% aminopropyl silane (Sigma Aldrich) in 95% ethanol. Coated slides were cured in a 110° C. oven. cDNAs were applied to the coated glass substrate using a procedure described in U.S. Pat. No. 5,807,522. One microliter of the cDNA at an average concentration of 100 ng/ul was loaded into the open capillary printing element by a high-speed robotic apparatus which then deposited about 5 nl of cDNA per slide.
# Microarrays were UV-crosslinked using a […] UV-crosslinker (Stratagene), and then washed at room temperature once in 0.2% SDS and three times in distilled water. Non-specific binding sites were blocked by incubation of microarrays in 0.2% casein in phosphate buffered saline (Tropix, Bedford Mass.) for 30 minutes at 60° C. followed by washes in 0.2% SDS and distilled water as before.
# Early confluent C3A cells (ATTC, Manassas Va.) were treated with captopril (0.5, 2, 48, and 60 μg/ml) for 1, 3, and 6 hours. Early confluent C3A cells were treated with enalapril (0.5, 2, 48, and 60 μg/ml) for 1, 3, and 6 hours. Early confluent C3A cells were treated with LY294002 (0.5, 2, 15, and 25 μg/ml) for 1, 3, and 6 hours. Early confluent C3A cells were starved of insulin for 3 days prior to treatment, then treated with LY294002 (10 μM) for 2, 24, 36, and 72 hours in the presence of insulin. Early confluent C3A cells were treated with DES (1, 10, and 100 μM) for 1, 3, and 6 hours. Early confluent C3A cells were treated with dexamethasone (1 and 20 μM) for 0, 2, 6, and 24 hours. Early confluent C3A cells were treated with MCA (0.5 and 10 μM) for 2, 6, and 24 hours. In all cases mRNA from untreated early confluent cells were prepared in parallel as described below.
# Cells were harvested and lysed in 1 ml of TRIZOL reagent (5×10^6 cells/ml; Life Technologies). The lysates were vortexed thoroughly and incubated at room temperature for 2-3 minutes and extracted with 0.5 ml chloroform. The extract was mixed, incubated at room temperature for 5 minutes, and centrifuged at 15,000 rpm for 15 minutes at 4° C. The aqueous layer was collected and an equal volume of isopropanol was added.
smiles,measurement,setting,value
"CC/C(=C(/CC)c1ccc(O)cc1)c1ccc(O)cc1 [DES, Diethylstilbestrol]",expression level of cDNA clone 60123,,2.6
same,expression level of cDNA clone 172023,,2.85
same,expression level of cDNA clone 437481,,2.24
same,expression level of cDNA clone 443991,,2.62
same,expression level of cDNA clone 510056,,2.73
same,expression level of cDNA clone 891322,,3.81
same,expression level of cDNA clone 970905,,2.25
same,expression level of cDNA clone 1272483,,2.51
same,expression level of cDNA clone 1326255,,−2.7
same,expression level of cDNA clone 1956982,,−2.13
same,expression level of cDNA clone 2055867,,2.97
same,expression level of cDNA clone 2241825,,−2.39
same,expression level of cDNA clone 2311213,,−2.34
same,expression level of cDNA clone 2545486,,−2.49
same,expression level of cDNA clone 2550767,,2.1
same,expression level of cDNA clone 2956444,,2.1
same,expression level of cDNA clone 3222802,,2.4
same,expression level of cDNA clone 4019706,,2.99
same,expression level of cDNA clone 4287327,,2.66
same,expression level of cDNA clone 4715924,,−2.21
same,expression level of cDNA clone 5293028,,−2.3
same,expression level of cDNA clone 5399371,,−2.63
same,expression level of cDNA clone 293477,table row r18,2.83
same,expression level of cDNA clone 293477,table row r23,2
C[C@@H]1C[C@H]2[C@@H]3CCC4=CC(=O)C=C[C@]4(C)[C@@]3(F)[C@@H](O)C[C@]2(C)[C@@]1(O)C(=O)CO [Dexamethasone],expression level of cDNA clone 26474,,−4.2
same,expression level of cDNA clone 63038,,−2.36
same,expression level of cDNA clone 118501,,2.79
same,expression level of cDNA clone 167081,,2.14
same,expression level of cDNA clone 172023,,−5.8
same,expression level of cDNA clone 237027,,−2.85
same,expression level of cDNA clone 630625,,2.52
same,expression level of cDNA clone 990375,,−2.5
same,expression level of cDNA clone 1379063,,−3.42
same,expression level of cDNA clone 1381654,,2.57
same,expression level of cDNA clone 1441245,,−2.3
same,expression level of cDNA clone 1448718,,−3.1
same,expression level of cDNA clone 1468660,,−3.3
same,expression level of cDNA clone 1559756,,2.47
same,expression level of cDNA clone 1616783,,2.55
same,expression level of cDNA clone 1619292,,−4.4
same,expression level of cDNA clone 1623214,,−2.25
same,expression level of cDNA clone 1630990,,2.86
same,expression level of cDNA clone 1696224,,2.83
same,expression level of cDNA clone 1786554,,2.66
same,expression level of cDNA clone 1833362,,−3.7
same,expression level of cDNA clone 1834236,,−2.3
same,expression level of cDNA clone 1846209,,2.2
same,expression level of cDNA clone 1890576,,−2.5
same,expression level of cDNA clone 1975268,,−3.35
same,expression level of cDNA clone 1998269,,2.44
same,expression level of cDNA clone 2046717,,2.8
same,expression level of cDNA clone 2048551,,2.91
same,expression level of cDNA clone 2120743,,3.25
same,expression level of cDNA clone 2123516,,2.66
same,expression level of cDNA clone 2160794,,−2.51
same,expression level of cDNA clone 2195427,,2.3
same,expression level of cDNA clone 2343348,,2.18
same,expression level of cDNA clone 2470485,,−2.8
same,expression level of cDNA clone 2513883,,3.93
same,expression level of cDNA clone 2660756,,2.21
same,expression level of cDNA clone 2757583,,4.93
same,expression level of cDNA clone 2822027,,3
same,expression level of cDNA clone 2921991,,−2.95
same,expression level of cDNA clone 2925373,,−2.63
same,expression level of cDNA clone 2933775,,4.32
same,expression level of cDNA clone 3028719,,−2.6
same,expression level of cDNA clone 3084204,,−2.47
same,expression level of cDNA clone 3109384,,2.6
same,expression level of cDNA clone 3170010,,−3.67
same,expression level of cDNA clone 3284411,,−2.4
same,expression level of cDNA clone 3715059,,−3.17
same,expression level of cDNA clone 4091186,,2.45
same,expression level of cDNA clone 4508879,,2.86
same,expression level of cDNA clone 5399371,,2.63
O=c1cc(N2CCOCC2)oc2c(-c3ccccc3)cccc12 [LY294002],expression level of cDNA clone 172023,,−3.38
same,expression level of cDNA clone 279898,,6.7
same,expression level of cDNA clone 459372,,4.65
same,expression level of cDNA clone 1315663,,−3.27
same,expression level of cDNA clone 1468660,,−2.28
same,expression level of cDNA clone 1975268,,−3.45
same,expression level of cDNA clone 1998269,,−2.46
same,expression level of cDNA clone 2769888,,−3.37
same,expression level of cDNA clone 3427373,,4.2
same,expression level of cDNA clone 3715059,,−4.3
same,expression level of cDNA clone 4556538,,2.45
